In assay [1] the target is Bifunctional 3'-5' exonuclease/ATP-dependent helicase WRN (Homo sapiens, UniProt Q14191). Briefly: ADP-Glo Kinase Assay. The protocol:
ATPase activity was measured using the ADP-Glo Kinase Assay following the manufacturers recommended protocol.
(In general: ADP-Glo first removes unused ATP, then detects ADP through luciferase.)

Assay [2] has as its target T1, Bifunctional 3'-5' exonuclease/ATP-dependent helicase WRN [480-1251] (UniProt Q14191).
T1 construct: 480-1251
Kind of assay: Biochemical Activity Assays.

Chain of Bifunctional 3'-5' exonuclease/ATP-dependent helicase WRN (Q14191 whole entry): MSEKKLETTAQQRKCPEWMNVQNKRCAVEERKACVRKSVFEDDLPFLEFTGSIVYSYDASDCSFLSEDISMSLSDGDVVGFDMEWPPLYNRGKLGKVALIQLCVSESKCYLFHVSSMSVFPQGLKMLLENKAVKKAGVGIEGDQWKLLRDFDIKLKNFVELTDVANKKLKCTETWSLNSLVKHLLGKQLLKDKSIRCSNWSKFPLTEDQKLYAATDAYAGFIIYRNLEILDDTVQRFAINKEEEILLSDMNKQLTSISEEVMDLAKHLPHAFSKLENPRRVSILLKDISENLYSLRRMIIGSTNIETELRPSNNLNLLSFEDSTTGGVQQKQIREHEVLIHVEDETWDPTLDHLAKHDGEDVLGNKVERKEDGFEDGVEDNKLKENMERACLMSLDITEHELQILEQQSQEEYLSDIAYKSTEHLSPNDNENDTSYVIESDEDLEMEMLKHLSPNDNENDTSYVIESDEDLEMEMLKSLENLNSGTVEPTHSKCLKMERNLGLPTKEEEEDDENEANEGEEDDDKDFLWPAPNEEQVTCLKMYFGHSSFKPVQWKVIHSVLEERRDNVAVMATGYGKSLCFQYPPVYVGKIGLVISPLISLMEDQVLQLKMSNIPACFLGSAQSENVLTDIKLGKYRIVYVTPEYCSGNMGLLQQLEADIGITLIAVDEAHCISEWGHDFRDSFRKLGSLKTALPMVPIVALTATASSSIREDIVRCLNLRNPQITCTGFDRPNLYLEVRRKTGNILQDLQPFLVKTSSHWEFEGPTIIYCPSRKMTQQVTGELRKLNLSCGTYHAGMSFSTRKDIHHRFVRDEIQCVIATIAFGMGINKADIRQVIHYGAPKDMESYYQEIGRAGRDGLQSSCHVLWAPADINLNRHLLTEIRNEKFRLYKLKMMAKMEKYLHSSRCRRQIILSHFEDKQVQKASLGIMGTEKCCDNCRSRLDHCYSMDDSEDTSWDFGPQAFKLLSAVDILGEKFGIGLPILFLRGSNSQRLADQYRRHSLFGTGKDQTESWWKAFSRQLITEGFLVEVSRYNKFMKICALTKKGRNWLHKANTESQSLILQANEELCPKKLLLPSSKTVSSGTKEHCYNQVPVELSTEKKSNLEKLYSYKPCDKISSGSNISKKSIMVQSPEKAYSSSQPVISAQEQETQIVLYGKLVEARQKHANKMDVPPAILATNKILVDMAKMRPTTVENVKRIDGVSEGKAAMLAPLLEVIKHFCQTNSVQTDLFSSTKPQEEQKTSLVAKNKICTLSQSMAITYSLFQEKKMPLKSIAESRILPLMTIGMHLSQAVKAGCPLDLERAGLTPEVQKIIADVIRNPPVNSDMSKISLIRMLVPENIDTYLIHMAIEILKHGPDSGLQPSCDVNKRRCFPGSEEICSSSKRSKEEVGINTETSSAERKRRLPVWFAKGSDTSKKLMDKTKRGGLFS
T1 sequence (Q14191 480-1251): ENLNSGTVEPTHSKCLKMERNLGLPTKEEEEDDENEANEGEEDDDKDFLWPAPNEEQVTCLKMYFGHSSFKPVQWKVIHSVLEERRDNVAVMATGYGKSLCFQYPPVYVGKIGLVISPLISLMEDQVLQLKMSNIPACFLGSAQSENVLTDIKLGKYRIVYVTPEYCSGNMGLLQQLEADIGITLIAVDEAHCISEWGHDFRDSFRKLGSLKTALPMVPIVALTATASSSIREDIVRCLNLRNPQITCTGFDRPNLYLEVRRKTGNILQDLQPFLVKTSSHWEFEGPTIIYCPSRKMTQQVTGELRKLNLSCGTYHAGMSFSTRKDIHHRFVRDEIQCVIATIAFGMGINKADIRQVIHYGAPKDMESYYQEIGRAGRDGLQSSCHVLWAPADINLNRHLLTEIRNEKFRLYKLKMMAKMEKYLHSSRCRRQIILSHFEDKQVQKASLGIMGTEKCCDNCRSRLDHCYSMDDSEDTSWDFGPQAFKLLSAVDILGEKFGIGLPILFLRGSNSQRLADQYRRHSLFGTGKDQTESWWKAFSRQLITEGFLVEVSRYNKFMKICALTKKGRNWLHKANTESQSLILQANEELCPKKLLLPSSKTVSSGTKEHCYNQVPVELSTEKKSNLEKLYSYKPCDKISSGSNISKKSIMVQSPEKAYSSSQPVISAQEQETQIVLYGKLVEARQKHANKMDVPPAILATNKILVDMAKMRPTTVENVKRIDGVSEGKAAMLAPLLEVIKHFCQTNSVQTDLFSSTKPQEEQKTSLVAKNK

Broadly, the IC50 is the concentration that inhibits the measured activity by half. In the case of `CCc1c(N2CCN(C(=O)c3ncnc(C)c3O)CC2)c(=O)n2nc(-c3ccc4c(c3)CC(=O)N4)nc2n1CC(=O)Nc1ccc(C(F)(F)F)cc1Cl` [WO2025049746, Example 325], the IC50 was 0.025 µM in assay [1] and 0.034 µM in assay [2].

As for `CCc1c(N2CCN(C(=O)c3ncnc(C)c3O)CC2)c(=O)n2nc(-c3ccn4ncc(F)c4c3)nc2n1CC(=O)Nc1ccc(C(F)(F)F)cc1Cl` [WO2025049746, Example 326], the half-inhibitory concentration (IC50) stood at 0.024 µM in assay [1] and 0.026 µM in assay [2].

As to `CCc1c(N2CCN(C(=O)c3ncnc(C)c3O)CC2)c(=O)n2nc(-c3coc4ccccc34)nc2n1CC(=O)Nc1ccc(C(F)(F)F)cc1Cl` [WO2025049746, Example 327], the IC50 in assay [1] came out at 0.03 µM; in assay [2] it was 0.056 µM.

For the molecule `CCc1c(N2CCN(C(=O)c3ncnc(C)c3O)CC2)c(=O)n2nc(-c3cnc4[nH]cc(Cl)c4c3)nc2n1CC(=O)Nc1ccc(C(F)(F)F)cc1Cl` [WO2025049746, Example 328], the IC50 in assay [1] turned out to be 0.042 µM; in assay [2] it was 0.053 µM.

Consider `CCc1c(N2CCN(C(=O)c3ncnc(C)c3O)CC2)c(=O)n2nc(-c3ccc(NS(N)(=O)=O)cc3)nc2n1CC(=O)Nc1ccc(C(F)(F)F)cc1Cl` [WO2025049746, Example 329], for which the IC50 in assay [1] is 0.021 µM; in assay [2], 0.025 µM.

For `CCc1c(N2CCN(C(=O)c3ncnc(C)c3O)CC2)c(=O)n2nc(-c3ccc(OCC(=O)O)cc3)nc2n1CC(=O)Nc1ccc(C(F)(F)F)cc1Cl` [WO2025049746, Example 330], the IC50 in assay [1] worked out at 0.025 µM; in assay [2], 0.033 µM.

In the case of `CCc1c(N2CCN(C(=O)c3ncnc(C)c3O)CC2)c(=O)n2nc(-c3ccc(NC(=O)NC)cc3)nc2n1CC(=O)Nc1ccc(C(F)(F)F)cc1Cl` [WO2025049746, Example 331], the values for the IC50 in assay [1] and in assay [2] were 0.02 µM and 0.026 µM, respectively.

`CCc1c(N2CCN(C(=O)c3ncnc(C)c3O)CC2)c(=O)n2nc(-c3ccc4nn(C5COC5)cc4c3)nc2n1CC(=O)Nc1ccc(C(F)(F)F)cc1Cl` [WO2025049746, Example 332]: the values for the IC50 in assay [1] and in assay [2] were 0.044 µM and 0.045 µM, respectively.

Turning to `CCc1c(N2CCN(C(=O)c3ncnc(C)c3O)CC2)c(=O)n2nc(-c3ccc([S+](C)[O-])cc3)nc2n1CC(=O)Nc1ccc(C(F)(F)F)cc1Cl` (stereo not drawn) [WO2025049746, Example 333], the half-maximal inhibitory concentration (IC50) in assay [1] and in assay [2] was 0.028 µM each time.

Turning to `CCc1c(N2CCN(C(=O)c3ncnc(C)c3O)CC2)c(=O)n2nc(-c3ccn4nc(OC(F)F)cc4c3F)nc2n1CC(=O)Nc1ccc(C(F)(F)F)cc1Cl` [WO2025049746, Example 334], the IC50 in assay [1] was found to be 0.03 µM; in assay [2] it was 0.032 µM.

On to `CCc1c(N2CCN(C(=O)c3ncnc(C)c3O)CC2)c(=O)n2nc(-c3ccn4c(cc(=O)n4C(F)F)c3F)nc2n1CC(=O)Nc1ccc(C(F)(F)F)cc1Cl` [WO2025049746, Example 335], for which the IC50 in assay [1] stood at 0.064 µM; in assay [2], 0.058 µM.

As for `CCc1c(N2CCN(C(=O)c3ncnc(C)c3O)CC2)c(=O)n2nc(-c3cc(C)c4ncccc4c3)nc2n1CC(=O)Nc1ccc(C(F)(F)F)cc1Cl` [WO2025049746, Example 336], the IC50 in assay [1] came to 0.053 µM; in assay [2], 0.06 µM.

In the case of `CCc1c(-c2cc3n(n2)CC(=O)N(C)C3)c(=O)n2nc(C3=CCOCC3)nc2n1CC(=O)Nc1ccc(C(F)(F)F)cc1Cl` [WO2025049746, Example 338], the IC50 in assay [1] and in assay [2] was 29.7 µM throughout.

For the molecule `CCc1c(N2CCC(N(C)C(=O)c3ncnc(C)c3O)C2)c(=O)n2nc(C3=CCOCC3)nc2n1CC(=O)Nc1ccc(C(F)(F)F)cc1Cl` (stereo not drawn) [WO2025049746, Example 339], the IC50 in assay [1] worked out at 29.7 µM; in assay [2], 2.34 µM.

`CCc1c(N2CCCN(C(=O)c3ncnc(C)c3O)CC2)c(=O)n2nc(C3=CCOCC3)nc2n1CC(=O)Nc1ccc(C(F)(F)F)cc1Cl` [WO2025049746, Example 340]: the half-maximal inhibitory concentration (IC50) in assay [1] was found to be 0.166 µM; in assay [2], 0.093 µM.

In the case of `CCc1c(N2CC[C@@H](C)N(C(=O)c3ncnc(C)c3O)CC2)c(=O)n2nc(C3=CCOCC3)nc2n1CC(=O)Nc1ccc(C(F)(F)F)cc1Cl` [WO2025049746, Example 341], the figures for the half-inhibitory concentration (IC50) in assay [1] and in assay [2] were 0.08 µM and 0.067 µM, respectively.

With `CCc1c(N2CC[C@H](C)N(C(=O)c3ncnc(C)c3O)CC2)c(=O)n2nc(C3=CCOCC3)nc2n1CC(=O)Nc1ccc(C(F)(F)F)cc1Cl` [WO2025049746, Example 342], the IC50 in assay [1] is 1.8 µM; in assay [2], 0.42 µM.

Consider `CCc1c(N2CCN(C(=O)/C=C/C(=O)c3ccc(OC)cc3)CC2)c(=O)n2nc(C3=CCOCC3)nc2n1CC(=O)Nc1ccc(C(F)(F)F)cc1Cl` [WO2025049746, Example 344], for which the concentration for half-maximal inhibition (IC50) in assay [1] was determined as 0.289 µM; in assay [2] it was 0.242 µM.

Regarding `CCc1c(N2CCCC3C2CCN3C(=O)c2ncnc(C)c2O)c(=O)n2nc(C3=CCOCC3)nc2n1CC(=O)Nc1ccc(C(F)(F)F)cc1Cl` (stereo not drawn) [WO2025049746, Example 345], the values for the concentration for half-maximal inhibition (IC50) in assay [1] and in assay [2] were 7.45 µM and 29.7 µM, respectively.

For the molecule `CCc1c(N2CCC3C2CCCN3C(=O)c2ncnc(C)c2O)c(=O)n2nc(C3=CCOCC3)nc2n1CC(=O)Nc1ccc(C(F)(F)F)cc1Cl` (stereo not drawn) [WO2025049746, Example 347], the half-maximal inhibitory concentration (IC50) is 0.132 µM in assay [1] and 0.084 µM in assay [2].

As for `CCc1c(N2CCN(C(=O)c3ncnc(C)c3O)CC2)c(=O)n2nc(-c3cccc4c3CCO4)nc2n1CC(=O)Nc1ccc(C(F)(F)F)cc1Cl` [WO2025049746, Example 348], the values for the IC50 in assay [1] and in assay [2] were 0.086 µM and 0.062 µM, respectively.

Consider `CCc1c(N2CCN(C(=O)c3ncnc(C)c3O)CC2)c(=O)n2nc(C3=CCOCC3)nc2n1CC(=O)NC12CCC(C(F)(F)F)(CC1)CC2` [WO2025049746, Example 349], for which the half-maximal inhibitory concentration (IC50) in assay [1] was 1.95 µM; in assay [2], 0.994 µM.

Turning to `CCc1c(N2CCN(C(=O)c3ncnc(C)c3O)CC2)c(=O)n2nc(C3=CCOCC3)nc2n1CC(=O)NC1CC2C(C1)C2(F)F` (stereo not drawn) [WO2025049746, Example 350], the results for the 50% inhibitory concentration (IC50) in assay [1] and in assay [2] were 6.83 µM and 6 µM, respectively.

As for `CCc1c(N2CCN(C(=O)c3ncnc(C)c3O)CC2)c(=O)n2nc(C3=CCOCC3)nc2n1CC(=O)NC1CCC(F)(F)CC1` [WO2025049746, Example 351], the IC50 in assay [1] was found to be 3.96 µM; in assay [2] it was 3.67 µM.

In the case of `CCc1c(N2CCN(C(=O)c3ncnc(C)c3O)CC2)c(=O)n2nc(C3=CCOCC3)nc2n1CC(=O)NC12CC(C3CCC3)(C1)C2` [WO2025049746, Example 352], the results for the IC50 in assay [1] and in assay [2] were 0.174 µM and 0.122 µM, respectively.

Take `CCc1c(N2CCN(C(=O)c3ncnc(C)c3O)CC2)c(=O)n2nc(C3=CCOCC3)nc2n1CC(=O)NC12CC(c3ccc(F)cc3)(C1)C2` [WO2025049746, Example 353]: the figures for the IC50 in assay [1] and in assay [2] were 6.86 µM and 29.7 µM, respectively.

As to `CCc1c(N2CCN(C(=O)c3ncnc(C)c3O)CC2)c(=O)n2nc(C3=CCOCC3)nc2n1CC(=O)Nc1ccc(OC(F)(F)Cl)cc1Cl` [WO2025049746, Example 355], the IC50 came to 0.049 µM in assay [1] and 0.039 µM in assay [2].

Consider `CCc1c(N2CCN(C(=O)c3ncnc(C)c3O)CC2)c(=O)n2nc(C3=CCOCC3)nc2n1CC(=O)Nc1ccc(SC(F)(F)F)cc1` [WO2025049746, Example 356], for which the concentration for half-maximal inhibition (IC50) in assay [1] turned out to be 0.875 µM; in assay [2], 0.634 µM.

Take `CCc1c(N2CCN(C(=O)c3ncnc(C)c3O)CC2)c(=O)n2nc(C3=CCOCC3)nc2n1CC(=O)NC1CC2(C1)CC(F)(F)C2` [WO2025049746, Example 357]: the results for the 50% inhibitory concentration (IC50) in assay [1] and in assay [2] were 4.82 µM and 5.2 µM, respectively.

Source of the values: BindingDB's records for patent WO2025049746 (Eikon Therapeutics, 2025).
